The text below walks through data of paper PMC9266351, “Degradation and Detoxification of Chlorophenols with Different Structure by LAC-4 Laccase Purified from White-Rot Fungus Ganoderma lucidum” (International Journal of Environmental Research and Public …, 2022).

Assay type in all cases: biochemical, Ganoderma lucidum
For assay [1], the system named is T1, LAC-4 laccase.
T1 construct: native secreted enzyme purified from culture filtrate (GYP medium, CuSO4-induced; ammonium sulfate, anion exchange, hydrophobic chromatography); about 56 kDa by SDS-PAGE
In words: degradation over […] min; Lineweaver-Burk plot. Particulars: 50 mM acetate pH 5.0, 30 °C; 0.1-8 mM substrate, 1 U/mL enzyme.

Assay [2] relates to T1, LAC-4 laccase. Kind of assay: spectrophotometric oxidation at […] nm; non-linear Michaelis-Menten fit. To be noted: 50 mM acetate pH 5.0, 30 °C; 0.1-1.0 mM substrate, 0.01 U/mL enzyme.
Assay [3] relates to T1, LAC-4 laccase. Kind of assay: degradation over […] min; Lineweaver-Burk plot. Particulars: 50 mM acetate pH 5.0, 30 °C; 0.1-8 mM substrate, 1 U/mL enzyme. This is another data set of the same source.
In assay [4] the test system is T1, LAC-4 laccase. In words: spectrophotometric oxidation at […] nm; non-linear Michaelis-Menten fit. To be noted: 50 mM acetate pH 5.0, 30 °C; 0.01-0.1 mM substrate, 0.01 U/mL enzyme.
The test system of assay [5] is T1, LAC-4 laccase. The description is as above. To be noted: 50 mM acetate pH 5.0, 30 °C; 0.01-0.06 mM substrate (all below Km), 0.01 U/mL enzyme.

A word on the Km: it is the substrate concentration at which the rate is half of its maximum.

As to `Oc1c(Cl)ccc(Cl)c1Cl` [2,3,6-TCP], the Km in the assay on LAC-4 laccase [1] was 4880 µM. `COc1ccccc1O` [guaiacol]: the Km with LAC-4 laccase [2] was found to be 97 µM.

On to `Oc1c(Cl)cccc1Cl` [2,6-DCP], for which, in the assay on LAC-4 laccase [3], the Km is 3640 µM. For `CCn1c(=NN=c2sc3cc(S(=O)(=O)O)ccc3n2CC)sc2cc(S(=O)(=O)O)ccc21` [ABTS], the Km in the assay on LAC-4 laccase [4] was 75 µM.

Regarding `COc1cccc(OC)c1O` [2,6-DMP], in the assay on LAC-4 laccase [5], the Km was determined as 803 µM.
